Test results as given in patent US20190367516A1 (Bayer Pharma Aktiengesellschaft, priority 2015, published 2019).
Where two headings read alike, the source gives them in different places.

Molecular target: T1, human M2 receptor (Homo sapiens, UniProt P08172)
T1 sequence (P08172 1-466): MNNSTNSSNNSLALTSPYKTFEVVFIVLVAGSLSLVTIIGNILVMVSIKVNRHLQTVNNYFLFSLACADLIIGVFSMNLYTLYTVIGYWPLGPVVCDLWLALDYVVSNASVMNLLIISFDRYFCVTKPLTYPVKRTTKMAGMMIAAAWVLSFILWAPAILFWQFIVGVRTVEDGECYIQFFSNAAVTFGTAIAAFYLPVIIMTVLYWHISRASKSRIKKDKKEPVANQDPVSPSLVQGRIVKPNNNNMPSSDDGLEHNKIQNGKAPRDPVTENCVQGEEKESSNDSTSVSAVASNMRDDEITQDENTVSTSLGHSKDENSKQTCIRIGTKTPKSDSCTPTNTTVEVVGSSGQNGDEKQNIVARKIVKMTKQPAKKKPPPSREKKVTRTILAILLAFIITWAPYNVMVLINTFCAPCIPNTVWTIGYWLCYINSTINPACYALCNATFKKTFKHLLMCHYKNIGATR

[1] = Receptor activity EC50, M2-GIRK1/4 activation test, acetylcholine at EC20, allosteric potency, in some cases mean values from two or more determinations
[2] = Receptor activity EC50, allosteric potency at EC20 acetylcholine, M2-GIRK1/4 reporter cells, in some cases mean of two or more determinations
[3] = read-out: Efficiency, boosting of the acetylcholine effect at EC20 acetylcholine concentration, M2-GIRK1/4 reporter cells

SMILES | EC50 [1] | EC50 [2] | Emax [3] | other results
C[C@H](NC(=O)c1cn(-c2c(F)cc(F)cc2F)c2nc(N3CC4CC4(O)C3)ccc2c1=O)C(F)(F)F (single isomer, unassigned) [Example 318] | 14 nM |  |  | 
O=C(NC1(C(F)(F)F)CCOC1)c1cn(-c2ccc(F)cc2F)c2nc(N3C[C@@H](O)CC3=O)ccc2c1=O (mixture of isomers) [Example 238, 1-(2,4-Difluorophenyl)-7-[(4S)-4-hydroxy-2-oxopyrrolidin-1-yl]-4-oxo-N-[3-(trifluoromethyl)tetrahydrofuran-3-yl]-1,4-dihydro-1,8-naphthyridine-3-carboxamide] | 1640 nM |  |  | 
O=C(NC(c1c(F)cccc1F)C(F)(F)F)c1cn(-c2ccc(F)cc2F)c2nc(N3CCCC(O)C3=O)ccc2c1=O (single isomer, unassigned) [Example 249, 1-(2,4-Difluorophenyl)-N-[1-(2,6-difluorophenyl)-2,2,2-trifluoroethyl]-7-[3-hydroxy-2-oxopiperidin-1-yl]-4-oxo-1,4-dihydro-1,8-naphthyridine-3-carboxamide] | 505 nM |  |  | 
CN(C)c1ccc2c(=O)c(C(=O)NC(C)(C)C)cn(-c3ccc(F)cc3Cl)c2n1 [Example 155, N-tert-Butyl-1-(2-chloro-4-fluorophenyl)-7-(dimethylamino)-4-oxo-1,4-dihydro-1,8-naphthyridine-3-carboxamide] | 173 nM |  |  | 
CC[C@H](NC(=O)c1cn(-c2c(F)cc(F)cc2Cl)c2nc(N3C[C@@H](O)[C@H](O)C3)ccc2c1=O)C(F)(F)F [Example 566, 1-(2-Chloro-4,6-difluorophenyl)-7-[(3R,4R)-3,4-dihydroxypyrrolidin-1-yl]-4-oxo-N-[(2S)-1,1,1-trifluorobutan-2-yl]-1,4-dihydro-1,8-naphthyridine-3-carboxamide] |  | 16 nM | 96.5% | 
O=C(NC12CC3CC(CC(C3)C1)C2)c1cn(-c2ccc(F)cc2F)c2nc(N3CCC(O)(CO)CC3)ccc2c1=O [Example 116, 1-(2,4-Difluorophenyl)-7-[4-hydroxy-4-(hydroxymethyl)piperidin-1-yl]-4-oxo-N-(tricyclo[3.3.1.1^3,7]dec-1-yl)-1,4-dihydro-1,8-naphthyridine-3-carboxamide] | 59 nM |  |  | 
CC(C)C(NC(=O)c1cn(-c2c(F)cc(F)cc2F)c2nc(N3C[C@@H](O)[C@H](O)C3)ccc2c1=O)C(F)(F)F (mixture of isomers) [Example 552, 7-[(3R,4R)-3,4-Dihydroxypyrrolidin-1-yl]-4-oxo-N-[1,1,1-trifluoro-3-methylbutan-2-yl]-1-(2,4,6-trifluorophenyl)-1,4-dihydro-1,8-naphthyridine-3-carboxamide] |  | 14 nM | 96% | 
CC[C@@H](NC(=O)c1cn(-c2c(F)cccc2F)c2nc(N3CCC(O)C3=O)ccc2c1=O)C(F)(F)F (single isomer, unassigned) [Example 293] | 73 nM |  |  | 
O=C(NC(c1ccccc1Cl)C(F)(F)F)c1cn(-c2ccccc2F)c2nc(N3CCC(O)C3=O)ccc2c1=O (single isomer, unassigned) [Example 291] | 673 nM |  |  | 
O=C(NC12CC(C1)C2)c1cn(-c2c(F)cc(F)cc2F)c2nc(N3CC(O)C4(CC4)C3)ccc2c1=O (single isomer, unassigned) [Example 628, N-(Bicyclo[1.1.1]pent-1-yl)-7-[7-hydroxy-5-azaspiro[2.4]hept-5-yl]-4-oxo-1-(2,4,6-trifluorophenyl)-1,4-dihydro-1,8-naphthyridine-3-carboxamide] |  | 32 nM |  | 
CC[C@@H](NC(=O)c1cn(-c2c(F)cccc2Cl)c2nc(N3CC[C@H](O)C3=O)ccc2c1=O)C(F)(F)F [Example 309, 1-(2-Chloro-6-fluorophenyl)-7-[(3S)-3-hydroxy-2-oxopyrrolidin-1-yl]-4-oxo-N-[(2R)-1,1,1-trifluorobutan-2-yl]-1,4-dihydro-1,8-naphthyridine-3-carboxamide] | 40 nM |  |  | 
O=C(NC(c1ccccc1Cl)C(F)(F)F)c1cn(-c2c(F)cc(F)cc2F)c2nc(N3C[C@@H](O)CC3=O)ccc2c1=O (mixture of isomers) [Example 532, N-[1-(2-Chlorophenyl)-2,2,2-trifluoroethyl]-7-[(4S)-4-hydroxy-2-oxopyrrolidin-1-yl]-4-oxo-1-(2,4,6-trifluorophenyl)-1,4-dihydro-1,8-naphthyridine-3-carboxamide] |  | 18 nM | 92% | 
CN(C)c1ccc2c(=O)c(C(=O)NC(c3cccc(F)c3)C(F)(F)F)cn(-c3ccc(F)cc3F)c2n1 (racemic) [Example 140, rac-1-(2,4-Difluorophenyl)-7-(dimethylamino)-4-oxo-N-[2,2,2-trifluoro-1-(3-fluorophenyl)ethyl]-1,4-dihydro-1,8-naphthyridine-3-carboxamide] | 68 nM |  |  | 
O=C(NC12CC3CC(CC(C3)C1)C2)c1cn(-c2ccc(F)cc2F)c2nc(N3CCCS3(=O)=O)ccc2c1=O [Example 167] | 47 nM |  |  | 
CC(NC(=O)c1cn(-c2c(F)cc(F)cc2F)c2nc(N3CCNC3=O)ccc2c1=O)(C(F)(F)F)C(F)(F)F [Example 581, N-(1,1,1,3,3,3-Hexafluoro-2-methylpropan-2-yl)-4-oxo-7-(2-oxoimidazolidin-1-yl)-1-(2,4,6-trifluorophenyl)-1,4-dihydro-1,8-naphthyridine-3-carboxamide] |  | 14 nM | 98% | 
O=C(N[C@H](C1CC1)C(F)(F)F)c1cn(-c2c(F)cccc2F)c2nc(N3CC4CC4(O)C3)ccc2c1=O (mixture of isomers) [Example 319, N-[(1R)-1-Cyclopropyl-2,2,2-trifluoroethyl]-1-(2,6-difluorophenyl)-7-[1-hydroxy-3-azabicyclo[3.1.0]hex-3-yl]-4-oxo-1,4-dihydro-1,8-naphthyridine-3-carboxamide] | 25 nM |  |  | 
CCC12CC3CC(C1)CC(NC(=O)c1cn(-c4ccc(F)cc4Cl)c4nc(N(C)C)ccc4c1=O)(C3)C2 [Example 157, 1-(2-Chloro-4-fluorophenyl)-7-(dimethylamino)-N-(3-ethyltricyclo[3.3.1.1^3,7]dec-1-yl)-4-oxo-1,4-dihydro-1,8-naphthyridine-3-carboxamide] | 67 nM |  |  | 
CC(C)C[C@@H](NC(=O)c1cn(-c2c(F)cc(F)cc2F)c2nc(N3CCNC3=O)ccc2c1=O)C(F)(F)F [Example 580, 4-Oxo-7-(2-oxoimidazolidin-1-yl)-N-[(2R)-1,1,1-trifluoro-4-methylpentan-2-yl)-1-(2,4,6-trifluorophenyl)-1,4-dihydro-1,8-naphthyridine-3-carboxamide] |  | 14 nM | 100% | 
O=C(N[C@@H](C1CC1)C(F)(F)F)c1cn(-c2c(F)cc(F)cc2F)c2nc(N3CC4(CC4)NC3=O)ccc2c1=O [Example 450, N-[(1 S)-1-Cyclopropyl-2,2,2-trifluoroethyl]-4-oxo-7-(5-oxo-4,6-diazaspiro[2.4]hept-6-yl)-1-(2,4,6-trifluorophenyl)-1,4-dihydro-1,8-naphthyridine-3-carboxamide] |  | 19 nM | 78.5% | 
CC(C)C(NC(=O)c1cn(-c2ccc(F)cc2F)c2nc(N(C)CCF)ccc2c1=O)C(F)(F)F (centres unmarked) [Example 108, 1-(2,4-Difluorophenyl)-7-[(2-fluoroethyl)(methyl)amino]-4-oxo-N-[1,1,1-trifluoro-3-methylbutan-2-yl]-1,4-dihydro-1,8-naphthyridine-3-carboxamide] | 24 nM |  |  | 
CCC(NC(=O)c1cn(-c2ccc(F)cc2F)c2nc(N3CCC(F)(F)C3)ccc2c1=O)C(F)(F)F (racemic) [Example 74, rac-1-(2,4-Difluorophenyl)-7-(3,3-difluoropyrrolidin-1-yl)-4-oxo-N-[1,1,1-trifluorobutan-2-yl]-1,4-dihydro-1,8-naphthyridine-3-carboxamide] | 58 nM |  |  | 
COC1(C)CN(c2ccc3c(=O)c(C(=O)N[C@H](C4CC4)C(F)(F)F)cn(-c4c(F)cc(F)cc4F)c3n2)C1 [Example 605, N-[(1R)-1-Cyclopropyl-2,2,2-trifluoroethyl]-7-(3-methoxy-3-methylazetidin-1-yl)-4-oxo-1-(2,4,6-trifluorophenyl)-1,4-dihydro-1,8-naphthyridine-3-carboxamide] |  | 25 nM | 98% | 
O=C(N[C@@H](C1CC1)C(F)(F)F)c1cn(-c2c(F)cc(F)cc2F)c2nc(N3C[C@@H](O)[C@@H](O)C3)ccc2c1=O [Example 630, N-[(1S)-1-Cyclopropyl-2,2,2-trifluoroethyl]-7-[(3R,4S)-3,4-dihydroxypyrrolidin-1-yl]-4-oxo-1-(2,4,6-trifluorophenyl)-1,4-dihydro-1,8-naphthyridine-3-carboxamide] |  | 48 nM |  | Emax (read-out: Efficiency): 100%
CCC(NC(=O)c1cn(-c2ccc(F)cc2F)c2nc(N3CCCS3(=O)=O)ccc2c1=O)C(F)(F)F (centres unmarked) [Example 180] | 115 nM |  |  | 
CCCC(NC(=O)c1cn(-c2ccc(F)cc2F)c2nc(NCCO)ccc2c1=O)C(F)(F)F (centres unmarked) [Example 81, 1-(2,4-Difluorophenyl)-7-[(2-hydroxyethyl)amino]-4-oxo-N-[1,1,1-trifluoropentan-2-yl]-1,4-dihydro-1,8-naphthyridine-3-carboxamide] | 102 nM |  |  | 
CC[C@@H](NC(=O)c1cn(-c2c(Cl)cc(F)cc2Cl)c2nc(N3CCNC3=O)ccc2c1=O)C(F)(F)F [Example 649, 1-(2,6-Dichloro-4-fluorophenyl)-4-oxo-7-(2-oxoimidazolidin-1-yl)-N-[(2R)-1,1,1-trifluorobutan-2-yl]-1,4-dihydro-1,8-naphthyridine-3-carboxamide] |  | 83 nM | 94% | 
